Laboratory results as given in patent US6794126B2, “Methods for preventing or inhibiting neuronal cell death” (The Trustees of Columbia University in the City of New York, priority 1996, dated 2004).

What was measured:
PC12 cells [1] = experiment: PC12 cell survival after SOD1 down-regulation by V-ASOD1; assay type: cell-based, rat
Procedure: (§1) PC12 cells were grown as previously described (Greene and Tishcler, 1976) on rat-tail collagen-coated dishes in RPMI 1640 medium containing 5% fetal calf serum and 10% heat-inactivated horse serum (complete medium). NGF primed PC12 cells were grown for at least 7 days in RPMI 1640 medium plus 1% horse serum and NGF (100 ng/ml). For cell survival assays involving trophic factor deprivation, cells (either naive or NGF-pretreated) were extensively washed in serum-free RPMI 1640 medium and re-plated on fresh collagen-coated 24-well dishes as previously described (Rukenstein et al., 1991) in RPMI 1640 medium lacking serum or NGF. For SOD1 down-regulation survival assays, cells were re-plated in complete medium with V-ASOD1 (vector linked antisense oligonucleotide to SOD1, 50 nM). Various concentrations of ICE inhibitors were included in the medium as indicated. Numbers of viable cells per culture were determined by quantifying intact nuclei as previously described (Rukenstein et al., 1991). Counts were performed in triplicate and reported as means±SEM.

PC12 cells [2] = experiment: Addition of rhIL-1β to PC12 cultures in the presence of NGF, insulin or serum; assay type: cell-based; conditions: 1 μg/ml
Procedure: as §1

IL-1β: recombinant human IL-1β provided by the NCI
effect of exogenous IL-1β on V-ASOD1 induced death (PC12 cells [1]; IL-1β 1 μg/ml with V-ASOD1 50 nM): potentiates the cell death
effect of exogenous IL-1β on protection by V-ICEinh (PC12 cells [1]; IL-1β 1 μg/ml, V-ASOD1 50 nM, V-ICEinh 25 nM): abrogates the protection
effect of exogenous IL-1β alone on cell death (PC12 cells [1]; IL-1β 1 μg/ml, no V-ASOD1): no effect
cell death on addition to PC12 cultures (PC12 cells [2]): did not produce cell death
